Like-named read-outs stand apart in the source and are kept apart here.
Columns and labels:
[1] = target: benzodiazepine receptor; experiment: benzodiazepine receptor bonding test using [^3 H] flunitrazepam as radioligand (FNB); assay type: binding
[2] = system: PAF; details: PAF-antagonistic activity; Kornecki et al.; read-out: IC50 (concentration for a 50% inhibition of aggregation); cited from earlier work
[3] = system: PAF-induced aggregation of human thrombocytes; experiment: PAF-induced aggregation of human thrombocytes in vitro (inhibition of blood platelet aggregation); assay type: cell-based; details: read-out: IC50 value PAF
Experimental: The PAF-antagonistic activity of some compounds of formulae Ia and Ib was tested in vitro on the inhibition of blood platelet aggregation.
1. Tests in vitro: inhibition of blood platelet aggregation
The PAF-induced aggregation of human thrombocytes in vitro was used to determine the PAF antagonistic activity of substances. In order to obtain thrombocyte-rich plasma (TRP) blood is taken from an uncongested vein using a plastic syringe which contains 3.8% sodium citrate solution. The ratio of sodium citrate solution to blood is 1:9. After careful mixing the citrated blood is centrifuged for 20 minutes at 150×g (1200 rpm). The thrombocyte aggregation is measured using the method developed by Born and Cross (G. V. R. Born and M. J. Cross, J. Physiol. 168, 178 (1963)), with PAF being added to the TRP with constant stirring to initiate aggregation.
The test substance is added in a volume of 10 μl 2-3 minutes before aggregation is initiated. The solvent used is either distilled water, ethanol and/or dimethyl sulphoxide. Control mixtures are given corresponding volumes of these solvents. After the initial absorption has been recorded (2-3 minutes) aggregation is induced with PAF (5×10^-8 M).
The peak of the first aggregation wave is used in order to assess the effects of the substance. The PAF-induced maximum absorption rate (=maximum aggregation×100%) is tested at the same time in a parallel mixture (=control mixture in one of the channels of the 2-channel aggregometer) to each test mixture (second channel) and used as a 100% value. The aggregation value achieved under the influence of the test substance is […].
Each test substance is tested at concentrations of from 10^-3 to 10^-8 M with a random sampling scope of n=4 to determine any inhibitory activity on the PAF-induced thrombocyte aggregation. A concentration-activity curve is then drawn up from 3 concentrations and the IC50 is determined (concentration for a 50% inhibition of aggregation). With some compounds, only approximate tests for guidance are carried out.

[4] = system: PAF-induced aggregation of human thrombocytes; details: PAF-antagonistic activity known from European Patent Application No. 176 927; read-out: IC50 (the concentration at which a 50% inhibition of aggregation is measured); cited from earlier work
[5] = [^3 H] flunitrazepam, racemate tested unless otherwise noted, read-out: IC50 value FNB (flunitrazepam bonding test)
[6] = [^3 H] flunitrazepam as radioligand, read-out: value in the benzodiazepine receptor bonding test
[7] = inhibition of PAF-induced (5×10^-8 M) human thrombocyte aggregation, racemate tested unless otherwise noted

Row | SMILES | IC50 [1, 5] | IC50 ([3]; Homo sapiens) | also measured
1 | Cc1nnc2n1-c1ccc(Cl)cc1C(c1ccccc1)=NC2 [Alprazolam, reference compound] | 5.5 nM | 14000 nM | IC50 [2]: 14000 nM
2 | Cc1nnc2n1-c1sc3c(c1C(c1ccccc1Cl)=NC2)CCCC3 [Compound (A), 6-(2-chlorophenyl)-11-methyl-2,3,4,5-tetrahydro-8H-[1]benzothieno[3,2-f][1,2,4]triazolo[4,3-a][1,4]diazepine, reference compound] | 21 nM | < 2500 nM | IC50 [1, 6]: 21 nM; IC50 [4]: 2500 nM
3 | Cc1nnc2n1-c1sc3c(c1C(c1ccccc1Cl)=NC2)CCNC3 [Compound (B), 6-(2-chlorophenyl)-11-methyl-2,3,4,5-tetrahydro-8-H-pyrido[4',3':4,5]thieno-[3,2-f][1,2,4]triazolo[4,3-a][1,4]diazepine, reference compound] | 35 nM | < 7000 nM | IC50 [1, 6]: 35 nM; IC50 [4]: 10000 nM
4 | Cc1nnc2n1-c1sc3c(c1C(c1ccccc1Cl)=NC2)CC(C(=O)N1CCOCC1)CC3 (stereo not shown) [Example 1, 4-(Morpholin-4-yl-carbonyl)-6-(2-chlorophenyl)-11-methyl-2,3,4,5-tetrahydro-8H-[1]benzothieno[3,2-f][1,2,4]triazolo[4,3-a][1,4]diazepine] | > 5000 nM | 500 nM | 
5 | Cc1nnc2n1-c1sc3c(c1C(c1ccccc1Cl)=NC2)CCC(C(=O)N1CCOCC1)C3 (stereo not shown) [Example 2, 3-(Morpholin-4-yl-carbonyl)-6-(2-chlorophenyl)-11-methyl-2,3,4,5-tetrahydro-8H-[1]benzothieno[3,2-f][1,2,4]triazolo[4,3-a][1,4]diazepine] | > 5000 nM | 2500 nM | 
6 | Cc1nnc2n1-c1sc3c(c1C(c1ccccc1Cl)=NC2)CC(C(=O)N1CCOCC1)C3 (stereo not shown) [Example 7, 3-(Morpholin-4-yl-carbonyl)-5-(2-chlorophenyl)-10-methyl-3,4-dihydro-2H,7H-cyclopenta[4,5]thieno[3,2-f][1,2,4]triazolo[4,3-a][1,4]diazepine] | 3600 nM | 300 nM | 
7 | Cc1cnc2n1-c1sc3c(c1C(c1ccccc1Cl)=NC2)CC(C(=O)N1CCOCC1)CC3 (stereo not shown) [Example 10, 4-(Morpholin-4-yl-carbonyl)-6-(2-chlorophenyl)-11-methyl-2,3,4,5-tetrahydro-8H-[1]benzothieno[3,2-f]imidazo[1,2-a][1,4]diazepine] |  |  | IC50 [3, 7]: 300 nM
8 | CCN(CC)C(=O)C1CCc2sc3c(c2C1)C(c1ccccc1Cl)=NCc1ncc(C)n1-3 (stereo not shown) [Example 11] | 5000 nM | 500 nM | 
9 | Cc1nnc2n1-c1sc3c(c1C(c1ccccc1Cl)=NC2)CC(CO)CC3 (stereo not shown) [Example 17, 4-(Hydroxymethyl)-6-(2-chlorophenyl)-11-methyl-2,3,4,5-tetrahydro-8H-[1]benzothieno[3,2-f][1,2]triazolo[4,3-a][1,4]diazepine] | 1070 nM | 1800 nM | 
10 | OCC1Cc2sc3c(c2C1)C(c1ccccc1Cl)=NCc1nncn1-3 (stereo not shown) [Example 18, 3-(Hydroxymethyl)-5-(2-chlorophenyl)-3,4-dihydro-2H,7H-cyclopenta[4,5]thieno[3,2-f][1,2,4]triazolo[4,3-a][1,4]diazepine] |  |  | IC50 [3, 7]: 1300 nM
11 | CC(=O)OCC1Cc2sc3c(c2C1)C(c1ccccc1Cl)=NCc1nnc(C)n1-3 (stereo not shown) [Example 19, 3-Acetoxymethyl-5-(2-chlorophenyl)-10-methyl-3,4-dihydro-2H,7H-cyclopenta[4,5]thieno[3,2-f][1,2,4]triazolo[4,3-a][1,4]diazepine] |  |  | IC50 [3, 7]: 600 nM
12 | Cc1nnc2n1-c1sc3c(c1C(c1ccccc1Cl)=NC2)CC(CN1CCOCC1)CC3 (stereo not shown) [Example 21, 4-(N-Morpholinomethyl)-6-(2-chlorophenyl)-11-methyl-2,3,4,5-tetrahydro-8H-[1]benzothieno[3,2-f][1,2,4]triazolo[4,3-a][1,4]-diazepine] | > 5000 nM | 300 nM | 
13 | CC(=S)N1CCc2c(sc3c2C(c2ccccc2Cl)=NCc2nnc(C)n2-3)C1 [Example 25, 3-Thioacetyl-6-(2-chlorophenyl)-11-methyl-2,3,4,5-tetrahydro-8H-pyrido[4',3':4,5]thieno[3,2-f][1,2,4]triazolo[4,3-a][1,4]diazepine] | 2300 nM | 1000 nM | 
14 | Cc1nnc2n1-c1sc3c(c1C(c1ccccc1Cl)=NC2)CC(C1=NCCN1)CC3 (stereo not shown) [Example 33, 4-[2-Imidazolin-2-yl]-6-(2-chlorophenyl)-2,3,4,5-tetrahydro-8H-[1]benzothieno[3,2-f][1,2,4]triazolo[4,3-a][1,4]diazepine] |  |  | IC50 [3, 7]: 2300 nM
15 | CCN(CC)C(=O)C1CCc2c(sc3c2C(c2ccccc2Cl)=NCc2nnc(C)n2-3)C1 (stereo not shown) [Example 35] | > 5000 nM | 3300 nM | 
16 | CCN(CC)C(=O)C1CCc2sc3c(c2C1)C(c1ccccc1Cl)=NCc1nnc(C)n1-3 (stereo not shown) [Example 36] | > 5000 nM | 400 nM | 
17 | Cc1nnc2n1-c1sc3c(c1C(c1ccccc1Cl)=NC2)CC(C(=O)N1CCN(C)CC1)CC3 (stereo not shown) [Example 37] | > 5000 nM | 1800 nM | 
18 | Cc1nnc2n1-c1sc3c(c1C(c1ccccc1Cl)=NC2)CC(C(=O)N(C)CCO)CC3 (stereo not shown) [Example 38] |  |  | IC50 [3, 7]: 2700 nM
19 | Cc1nnc2n1-c1sc3c(c1C(c1ccccc1Cl)=NC2)C(C(=O)N(C)C)CC3 (stereo not shown) [Example 46] | 1460 nM | 4800 nM | 
20 | Cc1nnc2n1-c1sc3c(c1C(c1ccccc1Cl)=NC2)CC(C(=O)NCC(=O)N1CCOCC1)C3 (stereo not shown) [Example 58] | 380 nM | 400 nM | 
21 | CC(=O)OCC1CCc2sc3c(c2C1)C(c1ccccc1Cl)=NCc1nnc(C)n1-3 (stereo not shown) [Example 62] | 4600 nM | 400 nM | 
22 | Cc1cnc2n1-c1sc3c(c1C(c1ccccc1Cl)=NC2)CC(Cn1cncn1)CC3 (stereo not shown) [Example 63] | > 5000 nM | 400 nM | 
23 | Cc1cnc2n1-c1sc3c(c1C(c1ccccc1Cl)=NC2)CC(CO)CC3 (stereo not shown) [Example 64] |  |  | IC50 [3, 7]: 800 nM
24 | Cc1nnc2n1-c1sc3c(c1C(c1ccccc1Cl)=NC2)CC(CN1CCOCC1)C3 (stereo not shown) [Example 66] | 920 nM | < 200 nM | 
25 | CC(=O)OCC1Cc2sc3c(c2C1)C(c1ccccc1Cl)=NCc1nncn1-3 (stereo not shown) [Example 68] |  |  | IC50 [3, 7]: 400 nM
26 | Cc1nnc2n1-c1sc3c(c1C(c1ccccc1Cl)=NC2)CC(C1=NCCO1)CC3 (stereo not shown) [Example 79] | 4800 nM | 2200 nM | 
27 | Cc1nnc2n1-c1sc3c(c1C(c1ccccc1Cl)=NC2)CC(C1=NC(C)(C)CN1)CC3 (stereo not shown) [Example 83] |  |  | IC50 [3, 7]: 900 nM
28 | CC(=O)NCC(=O)N1CCc2c(sc3c2C(c2ccccc2Cl)=NCc2nnc(C)n2-3)C1 [Example 86, 3-Acetylaminomethylcarbonyl-6-(2-chlorophenyl)-11-methyl-2,3,4,5-tetrahydro-8H-pyrido[4',3':4,5]thieno[3,2-f][1,2,4]triazolo[4,3-a][1,4]diazepine] | > 5000 nM | 1000 nM | 
29 | Cc1cnc2n1-c1sc3c(c1C(c1ccccc1Cl)=NC2)CC(CN1CCOCC1)C3 (stereo not shown) [Example 113] | 3000 nM | < 200 nM | 
30 | Cc1nnc2n1-c1ccc(Cl)cc1C(c1ccccc1Cl)=NC2 [Triazolam, reference compound] | 1.4 nM | 9000 nM | IC50 [2]: 9000 nM

Source: patent US5532233A, “Hetrazepine compounds which have useful pharmaceutical utility” (priority 1986, dated 1996)
